Source: ChEMBL document CHEMBL1145380, “Optimization of 1,3,4-benzotriazepine-based CCK(2) antagonists to obtain potent, orally active inhibitors of gastrin-mediated gastric acid secretion” (J Med Chem, 2007)

Legend:
[1] = molecular target: T1, Gastrin/cholecystokinin type B receptor (Homo sapiens, UniProt P32239); experiment: Displacement of [125I]BH-CCK-8S from human recombinant CCK2 receptor expressed in NIH3T3 cells
T1 sequence (P32239 whole entry): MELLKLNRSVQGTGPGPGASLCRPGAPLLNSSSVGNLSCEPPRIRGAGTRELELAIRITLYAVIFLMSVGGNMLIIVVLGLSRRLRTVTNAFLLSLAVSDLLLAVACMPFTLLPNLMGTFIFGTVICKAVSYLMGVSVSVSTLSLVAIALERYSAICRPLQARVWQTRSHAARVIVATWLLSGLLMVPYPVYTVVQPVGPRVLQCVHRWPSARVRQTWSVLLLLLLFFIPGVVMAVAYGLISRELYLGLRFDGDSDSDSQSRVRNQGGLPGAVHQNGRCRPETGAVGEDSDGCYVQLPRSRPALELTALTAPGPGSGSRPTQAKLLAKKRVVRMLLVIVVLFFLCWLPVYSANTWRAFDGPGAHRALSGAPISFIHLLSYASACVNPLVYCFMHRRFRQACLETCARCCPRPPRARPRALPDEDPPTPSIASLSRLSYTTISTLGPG

[2] = molecular target: T2, Cholecystokinin receptor type A (Homo sapiens, UniProt P32238); experiment: Displacement of [3H]L-364718 from human recombinant CCK1 receptor expressed in CHOK1 cells; type: cell-based, CHO-K1
T2 sequence (P32238 whole entry): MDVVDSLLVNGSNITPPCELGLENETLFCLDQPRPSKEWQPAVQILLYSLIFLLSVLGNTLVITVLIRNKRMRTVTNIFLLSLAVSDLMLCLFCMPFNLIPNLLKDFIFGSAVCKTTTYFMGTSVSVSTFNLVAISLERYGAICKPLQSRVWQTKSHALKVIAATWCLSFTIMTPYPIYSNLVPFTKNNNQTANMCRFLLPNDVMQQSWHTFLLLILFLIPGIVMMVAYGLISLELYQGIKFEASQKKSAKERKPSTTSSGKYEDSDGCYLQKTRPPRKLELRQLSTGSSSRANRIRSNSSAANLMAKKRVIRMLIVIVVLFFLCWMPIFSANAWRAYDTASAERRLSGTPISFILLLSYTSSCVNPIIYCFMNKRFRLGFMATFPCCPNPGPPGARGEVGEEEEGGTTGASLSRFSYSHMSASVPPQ

[3] = molecular target: T3, Gastrin/cholecystokinin type B receptor (Canis lupus familiaris, UniProt P30552); experiment: Displacement of [125I]BH-[…] from CCK2 receptor in canine gastric mucosa; type: tissue-based
T3 sequence (P30552 whole entry): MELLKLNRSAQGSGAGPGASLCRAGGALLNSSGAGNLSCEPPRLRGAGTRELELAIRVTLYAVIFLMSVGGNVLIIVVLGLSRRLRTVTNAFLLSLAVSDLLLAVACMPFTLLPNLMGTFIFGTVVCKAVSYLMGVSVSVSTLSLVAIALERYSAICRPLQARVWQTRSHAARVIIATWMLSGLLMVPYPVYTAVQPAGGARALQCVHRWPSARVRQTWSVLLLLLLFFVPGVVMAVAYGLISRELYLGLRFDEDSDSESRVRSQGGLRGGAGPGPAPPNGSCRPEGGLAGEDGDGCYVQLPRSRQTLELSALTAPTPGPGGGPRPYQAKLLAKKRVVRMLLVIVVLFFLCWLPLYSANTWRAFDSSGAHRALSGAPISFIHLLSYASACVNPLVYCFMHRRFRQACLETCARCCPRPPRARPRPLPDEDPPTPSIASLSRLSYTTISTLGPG

[4] = molecular target: T2, Cholecystokinin receptor type A; experiment: Displacement of [3H]L-364718 from human recombinant CCK1 receptor expressed in PC3 cells; type: cell-based, PC-3
[5] = molecular target: T4, Gastrin/cholecystokinin type B receptor (Rattus norvegicus, UniProt P30553); experiment: Antagonist activity at CCK2 receptor in perfused rat stomach assessed as inhibition of pentagastrin-stimulated gastric acid secretion; type: functional, tissue-based; conditions: read-out: pA2 (converted)
T4 sequence (P30553 whole entry): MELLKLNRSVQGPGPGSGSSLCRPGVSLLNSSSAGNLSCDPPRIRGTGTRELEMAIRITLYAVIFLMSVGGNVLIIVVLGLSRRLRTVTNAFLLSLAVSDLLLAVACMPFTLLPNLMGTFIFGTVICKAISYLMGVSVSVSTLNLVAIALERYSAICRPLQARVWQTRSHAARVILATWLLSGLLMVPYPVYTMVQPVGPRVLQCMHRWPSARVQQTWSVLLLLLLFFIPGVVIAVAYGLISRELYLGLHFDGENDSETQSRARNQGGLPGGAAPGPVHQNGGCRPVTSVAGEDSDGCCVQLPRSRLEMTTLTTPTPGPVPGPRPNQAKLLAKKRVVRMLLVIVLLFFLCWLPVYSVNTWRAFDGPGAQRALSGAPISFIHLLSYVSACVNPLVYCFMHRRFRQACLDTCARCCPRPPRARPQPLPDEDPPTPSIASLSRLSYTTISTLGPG

[6] = molecular target: T5, Gastrin/cholecystokinin type B receptor (Canis lupus familiaris) (UniProt P30552); experiment: Inhibition of pentagastrin-stimulated gastric acid secretion in conscious gastric fistula dog at 0.05 mg/kg, iv; type: functional, organism-based; set-up: dose 0.05 mg/kg; conditions: Stomach
T5 sequence (whole entry): T3 sequence (P30552 whole entry)

[7] = molecular target: T5, Gastrin/cholecystokinin type B receptor (Canis lupus familiaris); experiment: Inhibition of pentagastrin-stimulated gastric acid secretion in conscious gastric fistula dog at 1 mg/kg, iv; type: functional, organism-based; set-up: dose 1 mg/kg; conditions: Stomach

SMILES | Ki [1] [µM] | Ki [2] [µM] | Ki [4] [µM] | also measured
CC(C)(C)C(=O)CN1C(=O)N(CC(=O)Nc2cccc(-c3cccc(C(=O)O)c3)c2)N=C(C2CCCCC2)c2ccccc21 | 0.00158 | 0.55 |  | 
CN(c1cccc(NC(=O)CN2N=C(C3CCCCC3)c3ccccc3N(CC(=O)C(C)(C)C)C2=O)c1)c1nn[nH]n1 | 0.00195 |  | 6.46 | Ki [3]: 0.00468 µM; Kb [5]: 0.024 µM
CC(C)(C)C(=O)CN1C(=O)N(CC(=O)Nc2cccc(-c3csc(C(=O)O)n3)c2)N=C(C2CCCCC2)c2ccccc21 | 0.000661 | > 10 |  | 
CC(C)(C)C(=O)CN1C(=O)N(CC(=O)Nc2cccc(SCc3nn[nH]n3)c2)N=C(C2CCCCC2)c2ccccc21 | 0.000708 | 0.389 |  | 
CC(C)(C)C(=O)CN1C(=O)N(CC(=O)Nc2cccc3c2cnn3CC(=O)O)N=C(C2CCCCC2)c2ccccc21 | 0.00275 | 6.92 |  | 
CC(C)(C)C(=O)CN1C(=O)N(CC(=O)Nc2cccc(NCC(=O)O)c2)N=C(C2CCCCC2)c2ccccc21 | 0.00617 |  | 8.51 | 
O=C(O)c1cccc(NC(=O)c2nc(C3CCCCC3)[nH]c2COC23CC4CC(CC(C4)C2)C3)c1 | 0.0195 |  | > 10 | inhibition [6]: 97%; inhibition [7]: 66%
CC(C)(C)C(=O)CN1C(=O)N(CC(=O)Nc2cccc3c2ccn3CC(=O)O)N=C(C2CCCCC2)c2ccccc21 | 0.00603 | > 10 |  | 
Cc1ccccc1C(=O)CN1C(=O)N(CC(=O)Nc2cccc(C(=O)O)c2)N=C(C2CCCCC2)c2ccccc21 | 0.00759 |  | > 10 | Ki [3]: 0.0263 µM
CC(C)(C)C(=O)CN1C(=O)N(CC(=O)Nc2cccc(SCC(=O)O)c2)N=C(C2CCCCC2)c2ccccc21 | 0.000646 |  | 0.646 | Ki [3]: 0.00575 µM; Kb [5]: 0.00275 µM
CN(CC(=O)O)c1cccc(NC(=O)CN2N=C(C3CCCCC3)c3ccccc3N(CC(=O)C(C)(C)C)C2=O)c1 | 0.00107 | 6.46 |  | 
CC(C)(C)C(=O)CN1C(=O)N(CC(=O)Nc2cccc(-c3cccn3CC(=O)O)c2)N=C(C2CCCCC2)c2ccccc21 | 0.000912 |  |  | 
CC(C)(C)C(=O)CN1C(=O)N(CC(=O)Nc2ccc3cnn(CC(=O)O)c3c2)N=C(C2CCCCC2)c2ccccc21 | 0.000832 | 2.14 |  | 
O=C(O)Cc1cccc(NC(=O)CN2N=C(C3CCCCC3)c3ccccc3N(CC(=O)C3CCCC3)C2=O)c1 | 0.000282 | > 10 |  | Ki [3]: 0.00631 µM
CN1C(=O)N(CC(=O)Nc2cccc(C(=O)O)c2)N=C(C2CCCCC2)c2ccccc21 | 1.2 |  | > 10 | 
CC(C)(C)C(=O)CN1C(=O)N(CC(=O)Nc2cccc(C(=O)O)c2)N=C(C2CCCC2)c2ccccc21 | 0.024 |  | > 10 | 
CC(C)(C)C(=O)CN1C(=O)N(CC(=O)Nc2cccc(-c3nc(C(=O)O)co3)c2)N=C(C2CCCCC2)c2ccccc21 | 0.000363 | 0.661 |  | 
CNc1cccc(NC(=O)N[C@@H]2N=C(c3ccccn3)c3ccccc3N(CC(=O)C(C)(C)C)C2=O)c1 [NETAZEPIDE] |  | 0.0288 |  | inhibition [6]: 97%; inhibition [7]: 66%
CC(C)(C)C(=O)CN1C(=O)N(CC(=O)Nc2ccc3c(ccn3CC(=O)O)c2)N=C(C2CCCCC2)c2ccccc21 | 0.000776 | 2.51 |  | 
CC(C)(C)C(=O)CN1C(=O)N(CC(=O)Nc2cccc(-c3ccc(C(=O)O)o3)c2)N=C(C2CCCCC2)c2ccccc21 | 0.000245 | 0.457 |  | 
O=C(CN1N=C(C2CCCCC2)c2ccccc2N(CC(=O)C2CCCCC2)C1=O)Nc1cccc(C(=O)O)c1 | 0.000794 | 7.94 |  | 

SMILES | Ki [1] [µM] | Ki [2] [µM] | Ki [4] [µM] | also measured
CC(=O)CN1C(=O)N(CC(=O)Nc2cccc(C(=O)O)c2)N=C(C2CCCCC2)c2ccccc21 | 0.331 |  | > 10 | 
CC(C)(C)C(=O)CN1C(=O)N(CC(=O)Nc2cccc(C(=O)O)c2)N=C(C23CC4CC(CC(C4)C2)C3)c2ccccc21 | 0.024 |  | 0.372 | 
O=C(CN1N=C(C2CCCCC2)c2ccccc2N(CC(=O)C2CCCC2)C1=O)Nc1cccc(C(=O)O)c1 | 0.001 |  | > 10 | Ki [3]: 0.00708 µM; Kb [5]: 0.00195 µM
CC(C)(C)C(=O)CN1C(=O)N(CC(=O)Nc2ccc3ccn(CC(=O)O)c3c2)N=C(C2CCCCC2)c2ccccc21 | 0.000295 | 0.55 |  | Ki [3]: 0.0024 µM
O=C(O)CSc1cccc(NC(=O)CN2N=C(C3CCCCC3)c3ccccc3N(CC(=O)C3CCCC3)C2=O)c1 |  | 2.09 |  | Ki [3]: 0.00479 µM
CC(C)(C)C(=O)CN1C(=O)N(CC(=O)Nc2cccc(C(=O)O)c2)N=C(C2CCCCC2)c2ccccc21 |  |  | > 10 | 
O=C(O)CCc1cccc(NC(=O)CN2N=C(C3CCCCC3)c3ccccc3N(CC(=O)C3CCCC3)C2=O)c1 | 0.000339 | 2.51 |  | Ki [3]: 0.00427 µM
CC(C)(C)C(=O)CN1C(=O)N(CC(=O)Nc2cccc(C(=O)NS(C)(=O)=O)c2)N=C(C2CCCCC2)c2ccccc21 | 0.00389 |  | 2.95 | 
CC(C)(C)C(=O)CN1C(=O)N(CC(=O)Nc2cccc(-c3cn(CC(=O)O)cn3)c2)N=C(C2CCCCC2)c2ccccc21 | 0.00407 | 1.7 |  | 
CCOCCN1C(=O)N(CC(=O)Nc2cccc(C(=O)O)c2)N=C(C2CCCCC2)c2ccccc21 | 0.49 |  |  | 
CC(C)(C)C(=O)CN1C(=O)N(CC(=O)Nc2cccc(-c3nn[nH]n3)c2)N=C(C2CCCCC2)c2ccccc21 | 0.001 | 1.74 |  | Ki [3]: 0.00316 µM; Kb [5]: 0.00776 µM
CC(C)(C)C(=O)CN1C(=O)N(CC(=O)Nc2ccc3ncn(CC(=O)O)c3c2)N=C(C2CCCCC2)c2ccccc21 | 0.017 | > 10 |  | 
CC(C)CCN1C(=O)N(CC(=O)Nc2cccc(C(=O)O)c2)N=C(C2CCCCC2)c2ccccc21 | 0.0204 |  | > 10 | 
O=C(CN1N=C(C2CCCCC2)c2ccccc2N(CC(=O)N2CCCC2)C1=O)Nc1cccc(C(=O)O)c1 | 0.0162 |  | > 10 | 
CC(C)(C)C(=O)CN1C(=O)N(CC(=O)Nc2ccc3c(cnn3CC(=O)O)c2)N=C(C2CCCCC2)c2ccccc21 | 0.00933 | 8.13 |  | 
CC(C)(C)C(=O)CN1C(=O)N(CC(=O)Nc2cccc(OCC(=O)O)c2)N=C(C2CCCCC2)c2ccccc21 | 0.0055 |  | 4.07 | 
CC(C)(C)C(=O)CN1C(=O)N(CC(=O)Nc2cccc(C(=O)O)c2)N=C(C2CCCCCC2)c2ccccc21 | 0.00479 |  | 5.75 | 
CC(C)(C)C(=O)CN1C(=O)N(CC(=O)Nc2cccc(Cc3nnn[nH]3)c2)N=C(C2CCCCC2)c2ccccc21 | 0.00468 | > 10 |  | 
CC(C)(C)C(=O)CN1C(=O)N(CC(=O)Nc2cccc(S(=O)(=O)CC(=O)O)c2)N=C(C2CCCCC2)c2ccccc21 | 0.00427 |  | > 10 | 
CC(C)(C)C(=O)CN1C(=O)N(CC(=O)Nc2cccc(CCC(=O)O)c2)N=C(C2CCCCC2)c2ccccc21 | 0.00186 | > 10 |  | 
O=C(CN1N=C(C2CCCCC2)c2ccccc2N(CC(=O)C23CC4CC(CC(C4)C2)C3)C1=O)Nc1cccc(C(=O)O)c1 | 0.00562 |  | 1.91 | 
